# pIC50: −log10 of the molar value. “Also recorded” adds a separate entry of the source.
# Assays:
# [1] = test system: 4T1 breast cancer; assay: Subcutaneous 4T1 breast cancer model; format: in vivo
# [2] = test system: LLC tumor brei; assay: LLC tumor brei model, Compound BB with or without cyclophosphamide; format: in vivo, mouse
# Protocol: In this experiment, treatment began when tumors reached approx. 150 mm^3—around day 12. Caliper and xenogen images were monitored. Treatment groups n=13-15/group. […] Samples for FACs analysis were collected on day 23 post implant. Using FACS, cells were assayed for the level of CD11b and Gr-1.
# [3] = test system: IL-8 induced neutrophil migration; assay: IL-8 driven murine air pouch model; format: in vivo; conditions: mouse; Compound BB 0.1, 0.3, 1, 3 mg/kg; Compound AA 10, 25, about 50 mg/kg; vs vehicle
# Text: IL-8 chemoattracts and activates neutrophils.
# [4] = test system: differentiation of myeloid cells into M2 TAMs; assay: Murine M2 TAM differentiation (ARG1 levels); format: cell-based, mouse
# Text: High ARG1 (Arginase-1) levels indicate that myeloid cells are differentiating into M2 macrophages, so lower ARG1 levels relative to a control indicate interference with differentiation into M2 macrophages. Expression of Arginase-1 depletes the tumor microenvironment of arginine, thereby promoting T cell death and NK cell inhibition. Schmid et. al., Proceedings: AACR 103rd Annual Meeting 2012, Cancer Research: Apr. 15, 2012; Volume 72, Issue 8, Supplement 1. […] M2 TAMs promote cancer cell survival (FIG. 23).
# [5] = Oral pharmacokinetics of Compound BB in rat; format: in vivo; conditions: 7.5 mg/kg oral
# Text: (§1) Compound BB's oral exposure is high in rat, dog and monkey. Good oral bioavailability and low clearance in rodent and non-rodent animal species results in high oral exposure.
# [6] = molecular target: P-GP (P-glycoprotein 1) (Homo sapiens (Human), UniProt P08183); assay: P-gp inhibition; format: in vitro ADME
# P-GP (P-glycoprotein 1), sequence (P08183 whole entry, species assumed): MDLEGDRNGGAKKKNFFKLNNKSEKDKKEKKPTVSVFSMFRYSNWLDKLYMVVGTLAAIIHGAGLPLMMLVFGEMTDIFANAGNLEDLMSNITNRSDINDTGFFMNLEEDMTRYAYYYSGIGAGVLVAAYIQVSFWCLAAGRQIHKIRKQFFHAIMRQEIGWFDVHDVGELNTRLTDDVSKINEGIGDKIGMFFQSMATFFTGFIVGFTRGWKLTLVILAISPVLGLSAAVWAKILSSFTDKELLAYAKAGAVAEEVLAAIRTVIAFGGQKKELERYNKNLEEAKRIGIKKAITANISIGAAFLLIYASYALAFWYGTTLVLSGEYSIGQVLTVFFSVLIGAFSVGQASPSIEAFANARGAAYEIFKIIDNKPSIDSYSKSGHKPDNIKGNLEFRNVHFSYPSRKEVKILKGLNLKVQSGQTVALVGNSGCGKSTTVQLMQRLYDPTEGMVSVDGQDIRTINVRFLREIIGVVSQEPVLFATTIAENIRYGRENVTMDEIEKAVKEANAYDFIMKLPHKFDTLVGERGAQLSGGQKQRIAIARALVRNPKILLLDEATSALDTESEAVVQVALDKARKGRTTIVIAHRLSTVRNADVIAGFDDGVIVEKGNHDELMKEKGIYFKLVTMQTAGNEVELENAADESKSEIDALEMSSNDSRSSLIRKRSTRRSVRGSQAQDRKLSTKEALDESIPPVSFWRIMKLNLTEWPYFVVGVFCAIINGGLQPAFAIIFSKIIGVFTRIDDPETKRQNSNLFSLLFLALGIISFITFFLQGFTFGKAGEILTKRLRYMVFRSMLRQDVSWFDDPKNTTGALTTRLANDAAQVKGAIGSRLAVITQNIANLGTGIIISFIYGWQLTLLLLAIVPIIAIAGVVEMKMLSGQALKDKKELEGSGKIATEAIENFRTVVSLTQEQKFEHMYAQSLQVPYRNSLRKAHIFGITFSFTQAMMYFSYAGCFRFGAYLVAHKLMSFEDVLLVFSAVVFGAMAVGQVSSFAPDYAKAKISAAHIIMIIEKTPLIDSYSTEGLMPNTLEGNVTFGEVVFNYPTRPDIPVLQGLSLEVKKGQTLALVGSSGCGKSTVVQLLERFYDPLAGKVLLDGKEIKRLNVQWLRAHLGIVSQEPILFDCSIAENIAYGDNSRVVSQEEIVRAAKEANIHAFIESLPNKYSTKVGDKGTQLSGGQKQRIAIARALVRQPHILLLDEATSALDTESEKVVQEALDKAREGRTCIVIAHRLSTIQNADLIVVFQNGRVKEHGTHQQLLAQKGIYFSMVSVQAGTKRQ
# [7] = test system: T cell proliferation suppressed by CT26 tumor cells; assay: Ex vivo T cell proliferation (CFSE) with cells of CT26 tumors; format: cell-based, mouse; conditions: vs tumor cells from vehicle treated mice
# Protocol: CT26 was an N-nitroso-N-methylurethane-(NNMU)induced, undifferentiated colon carcinoma cell line. It was cloned to generate the cell line designated CT26.WT (ATCC CRL-2638).
# The duration of the study was 1 week under treatment. 5-6 week old female, Balb/c mice (Jackson Labs) implanted subcutaneously with 5×10^5CT26 cells in 100 μl PBS. CT26 cells were cultured in RPMI supplemented with 10% FBS. Dosing commenced when tumors reached an average volume of 500-600 mm^3.
# For group 3 (αPD-L1), the mice were dosed once, IP, 200 ug (200 uL from 1 mg/ml stock).
# Mice were monitored daily for adverse clinical effects. Body weights and tumor luminescent were measured two times per week. At the end of the study, tumors were harvested and cut into 3 parts; one piece for CTL killing assay, one piece for CSFE proliferation assay and one piece (split into two) for OCT/FFPE.
# Spleens from 3 vehicle treated tumor bearing mice were physically dissociated in T cell media and passed through a 70 micron filter. After red cell lysis, the cells were pooled, brought up in PBS and stained with CFSE (invitrogen). After washing, these cells were brought up in 20 ml T cell media. Half the cells received Dynal mouse activator beads (CD3/CD28 crosslinking at a 1:1 concentration). CD3/CD28 beads induce proliferation in splenocytes from tumor bearing mouse (data not shown). […]
# [8] = test system: M2 macrophage markers; assay: M2 macrophage marker expression with or without PDL-1 antibody (FIG. 42); format: in vivo
# [9] = test system: Human hep; assay: Human hep viability (ADME characteristics, Table 25); format: cell-based
# [10] = test system: spleen T cell proliferation; assay: Ex vivo T-cell proliferation assay with tumor-derived cells; format: cell-based; conditions: compared to tumor derived cells from vehicle treated mice
# [11] = Pharmacokinetics of Compound BB, single and repeat oral dose in CB6F1 female mice; format: in vivo, mouse; conditions: CB6F1 female mice, 2, 7.5, 15 mg/kg PO
# Protocol: Animals were weighed daily prior to dosing. […] On subsequent dosing days, the animals' condition was noted prior to dosing; the animals were observed within 4 hours of dosing, and at the end of the day.
# Samples were collected at pre-dose 0.25, 0.5, 1, 2, 4, 6 and 24 h following the first dose on day 1 and pre-dose (trough), 0.25, 0.5, 1, 2, 4, 6 and 24 h following the final dose on day 3. Animals received a single oral dose daily for 3 consecutive days. Blood was collected by retro-orbital bleeding for all time points on day 1. All other blood sampling was collected by a cardiac puncture. Blood was collected into K2EDTA tubes and placed on wet ice. Within 15 min of collection, the sample was centrifuged at 10,000 rpm at 4° C. for 10 min in a bench top centrifuge and the plasma transferred to a new microcentrifuge tube.
# [12] = Oral pharmacokinetics of Compound BB in dog; format: in vivo; conditions: 5 mg/kg oral
# Text: as §1
# [13] = Target organ toxicity (TOT) study in rats, 10 days oral; format: in vivo
# Protocol: A target organ toxicity (TOT) study was performed in rats. […] This study assessed clinical observations/mortality, body weights, clinical pathology, toxicokinetics, and histopathology of select tissues. The tissues studied were: Adrenal gland, Bone marrow (femur), Brain, Small Intestine (including GALT), Heart, Large Intestine, Kidney, Stomach, Liver, Pancreas, Spleen, Testis, and Thymus. Doses were selected based on repeat-dose tolerability study, PK and plasma protein binding, and cellular IC50s for PI3K isoforms.
# [14] = test system: M1 macrophage differentiation; assay: M1 macrophage differentiation; format: cell-based; conditions: data not shown
# Protocol: A similar experiment was performed on M1 differentiation.
structure (smiles),measurement,setting,value
C[C@H](NC(=O)c1c(N)nn2cccnc12)c1cc2cccc(C#Cc3cnn(C)c3)c2c(=O)n1-c1ccccc1 [Compound BB],tumor growth,"[1]; co-administration with docetaxel, paclitaxel, or 5-FU",further reduction in tumor growth
same,activity in subcutaneous 4T1 breast cancer model,[1]; single agent,single agent activity
same,Tumor growth (FIG. 48),"[2]; Compound BB 15 mg/kg QD PO, cyclophosphamide 50 mg/kg EOD IP",reduced tumor growth by about the same amount
same,"CD206 population in tumor (FACS, FIG. 52)",[2]; Compound BB alone or with cyclophosphamide,decrease in the CD206 population
same,IL-8 induced neutrophil migration into air pouch,[3],blocks IL-8 induced neutrophil migration
same,"Differentiation of myeloid cells into M2 TAMs (ARG1 levels, FIG. 22)",[4],inhibited M2 TAM differentiation much more effectively than PI3K-δ inhibitor
same,"Oral exposure (plasma concentrations within 24 hours, FIG. 43)",[5],high
same,P-GP (P-glycoprotein 1) inhibition,[6],appears to be an inhibitor of P-GP
same,"Inhibition of spleen T cell proliferation by tumor cells of treated mice (FIGS. 55, 56)",[7],less inhibitory of spleen T cell proliferation; also recorded: can release the suppression
same,M2 macrophage marker ARG-1,[8],reduced
same,M2 macrophage marker VEGF,[8],reduced
same,pIC50,[9],4.60 to 5.00
same,inhibition of spleen T cell proliferation by cells isolated from tumors of treated mice,[10],less inhibitory
same,Stability in serum (24-hour time course of unbound plasma concentration),[11],good stability in serum
same,"Oral exposure (plasma concentrations within 24 hours, FIG. 43)",[12],high
same,"Histopathology, gross changes",[13]; 10 days,no significant gross changes were observed
same,Decrease in body weights compared to vehicle,"[13]; high dose (50 mg/kg/day), 10 days",5-8%
same,"Histopathology, thymus","[13]; males at ≥7.5 mg/kg/day, females at 50 mg/kg/day",minimal/mild lymphoid depletion
same,Mortality and clinical signs,"[13]; oral 10 days, any dose level",No mortality or clinical signs were observed
same,Tolerability,"[13]; oral, 1, 7.5, 20, 50 mg/kg/day",well-tolerated for 10 days
same,"Histopathology, spleen",[13]; primarily at doses ≥20 mg/kg/day,minimal/mild lymphoid depletion of the marginal zone and periarteriolar lymphoid sheaths (PALS)
same,Clinical pathology,[13]; primarily in 20 and 50 mg/kg/day groups,"minimal changes in neutrophils, lymphocytes, and fibrinogen"
same,M1 macrophage differentiation,[14],did not have an observable effect
